Molecular target: T1, NAD-dependent protein deacetylase sirtuin-2 (Homo sapiens, UniProt Q8IXJ6)
T1 sequence (Q8IXJ6 whole entry): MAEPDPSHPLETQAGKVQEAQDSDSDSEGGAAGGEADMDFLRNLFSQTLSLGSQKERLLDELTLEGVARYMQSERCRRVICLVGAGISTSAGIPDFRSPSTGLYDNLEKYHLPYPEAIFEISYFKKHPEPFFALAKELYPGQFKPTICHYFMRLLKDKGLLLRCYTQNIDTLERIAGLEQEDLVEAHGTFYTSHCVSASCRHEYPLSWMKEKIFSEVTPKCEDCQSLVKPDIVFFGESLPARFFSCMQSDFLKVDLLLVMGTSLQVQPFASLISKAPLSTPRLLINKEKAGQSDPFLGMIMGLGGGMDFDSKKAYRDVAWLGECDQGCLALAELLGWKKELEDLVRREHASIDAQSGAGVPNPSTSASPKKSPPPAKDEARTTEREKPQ
Experiment: Inhibition of human recombinant GST-tagged SIRT2 by histone deacetylase assay

| SMILES | IC50 [µM] |
| --- | --- |
| Oc1ccccc1/C=N/c1ccc(OCCCCOc2ccc(/N=C/c3ccccc3O)cc2)cc1 | > 1000 |
| O=C(O)/C=C/C(=O)Nc1cccc(NC(=O)c2ccccc2O)c1 | > 1000 |
| Oc1ccccc1/C=N/c1ccc(OCCCOc2ccc(/N=C/c3ccccc3O)cc2)cc1 | > 1000 |
| O=C(O)CCCCOc1ccc2oc3ccccc3c(=O)c2c1 | > 1000 |
| CC(C)(C)OC(=O)NC(Cc1ccccc1)C(=O)OCc1ccc(CC(=O)O)cc1 (stereo not given) | > 1000 |
| COc1cc(NC(=O)c2ccccc2)c(C)cc1NC(=O)CC(CC(=O)O)c1ccccc1 (stereo not given) | > 1000 |
| CN(CCO)c1ccc(C(=O)c2ccc(N(C)CCO)cc2)cc1 | > 1000 |
| Oc1ccc(/C=N/c2ccc(Cc3ccc(/N=C/c4ccc(O)c(O)c4)cc3)cc2)cc1O | > 1000 |
| O=C(O)CSCC(=O)N1CCN(c2cc(C(F)(F)F)nc3ccccc23)CC1 | > 1000 |
| O=C1c2cccc3c(SCCO)ccc(c23)C(=O)N1CCc1ccccn1 | > 1000 |

Next, values leading:

| IC50 [µM] | SMILES |
| --- | --- |
| 74.3 | Cc1ncc(CSc2ccccc2/N=C/c2cc(Cl)cc(Cl)c2O)c(CO)c1O |
| > 300 | O=C(Nc1ccc(COc2ccccc2)cc1)Nc1cccc(C(=O)O)c1 |
| > 300 | O=c1cc(CSc2n[nH]c(=O)n2C2Cc3ccccc3C2)c2ccc(O)cc2o1 |
| 56.7 | O=C1c2ccccc2C(=O)c2c(NCCc3ccc(O)cc3)ccc(NCCc3ccc(O)cc3)c21 |
| > 300 | Oc1ccc(CCc2nnc(S)n2-c2ccc(Cl)cc2)cc1 |
